Reference: article PMC8342458, “GluN2A and GluN2B NMDA receptors use distinct allosteric routes” (Nature Communications, 2021)
Several values for one entry are separate records, joined by “and”; a condition that tells them apart may be missing. Equal entries are not always repeated. Where two headings read alike, the source gives them in different places.

Assays:
[1] = target: T1, wild-type (wt) GluN1/GluN2A receptors (Rattus norvegicus, UniProt P35439+Q00959); experiment: TEVC recordings in Xenopus oocytes, allosteric modulator sensitivity; assay type: cell-based; settings: for Izn/Io 1 nM: 1 nM zinc; for Izn/Io 10 nM: 10 nM zinc; for Izn/Io 50 nM: 50 nM zinc; for Izn/Io 500 nM: 500 nM zinc; for Izn/Io 1000 nM: 1000 nM zinc
T1 construct: For full-length multimeric membrane-embedded receptors studied in cellulo, as done in the present work; expressed in transfected cells; host or cells: Xenopus laevis oocytes (nuclear cDNA injection, pcDNA3 plasmids)
Protocol: (§1) The pcDNA3-based expression plasmids for rat GluN1-1a (named GluN1 herein), rat GluN2A, and mouse GluN2B (also known as ε2) subunits, Pfu-based site-directed mutagenesis strategy, and sequencing procedure have been described previously[68],[69]. Incorporation of the unnatural amino acids (UAAs) AzF and BzF into NMDARs was performed using the genetic code expansion methodology as previously described[52],[53],[83]. The plasmid pSVB.Yam carrying the gene encoding the amber suppressor tRNA derived from B. stearothermophilus Tyr-tRNACUA, while the aminoacyl-tRNA synthetases (aaRS) construction for AzF and BzF derived from E. coli TyrRS[84],[85].
(§2) Recombinant NMDARs were expressed in Xenopus laevis oocytes after nuclear injection of 36 nl of a mixture of cDNAs (at 10–30 ng/μl) encoding various GluN1 and GluN2 subunits (ratio 1:1). Oocytes were prepared, injected, incubated, and voltage-clamped as described previously. For UAA incorporation, oocytes were co-injected with 36 nl of a cDNA mixture encoding for of GluN1, GluN2, Yam, and aaRS as follows, unless otherwise indicated in the text: GluN1-K178amber (120 ng/μl), GluN2A (80 ng/µl) or GluN2B (120 ng/μl), Yam (10 ng/μl), AzF-RS (5 ng/μl). After injection, oocytes were incubated at 19 °C in a Barth solution containing (in mM) 88 NaCl, 1 KCl, 0.33 Ca(NO3)2, 0.41 CaCl2, 0.82 MgSO4, 2.4 NaHCO3, 10 HEPES (pH adjusted to 7.6 with NaOH) supplemented with gentamicin ([…]) and the NMDAR glutamate binding site competitive antagonist D-APV (50 μM). AzF and BzF were added to the incubation medium at final concentrations of 1 mM and 2 mM, respectively.
(§3) For all experiments, except those on pH and spermine sensitivity, the standard external solution contained (in mM): 100 NaCl, 0.3 BaCl2, and 5 HEPES (pH adjusted to 7.3 with KOH). […] For the pH and spermine sensitivity experiments, an external solution enriched in HEPES was used to insure proper pH buffering. Unless otherwise mentioned, NMDAR-mediated currents were induced by simultaneously applications of saturating concentrations of glutamate and glycine (100 μM each). Glutamate and glycine dose-response curves (DRC) were performed in the presence of 100 µM glycine and 100 µM glutamate, respectively. Recordings were performed at a holding potential of −60 mV and at room temperature. Data were collected and analyzed using Clampex 10.5 and Clampfit 10.5 (Molecular Devices), respectively, and fitted using KaleidaGraph 4.0 (Synergy software).
(§4) EC50 and nH were fitted as free parameters. […] For proton DRC, corrections for small shifts in the reference potential of bath electrodes and analysis of the data were performed as previously described. Spermine experiments were performed and analyzed as previously described. In brief, spermine sensitivity was assessed at pH 6.5 and at a holding potential of −30 mV to maximize the spermine induced potentiation. […] EC50, a and nH were set as free parameters. MK-801 is an NMDAR open channel blocker with slow reversibility and, consequently, the rate at which MK-801 inhibits NMDAR responses depends on the level of channel activity, that is, channel open probability (Po). Based on this principle, MK-801 is classically used to estimate the level of NMDAR channel activity in macroscopic whole-cell recordings[36],[47],[56],[86],[87]. Note, however, that MK- 801 inhibition kinetics can index relative, not absolute, Po. MK-801 solutions (10 nM for GluN2A-containing receptors and 50 nM for GluN2B-containing receptors) were prepared by dilution of a stock solution (50 mM) into the agonist containing solutions. MK-801 time constants of inhibition (τon) were obtained by fitting currents with a single-exponential component to a time window corresponding to 10–90% of maximum inhibition. On-rate (kon) constants were then calculated assuming a pseudo first-order reaction scheme: kon = 1 / ([MK-801]*τon).

[2] = target: T2, GluN1-K178AzF/GluN2B receptors (UniProt P35439+Q01097, K178F); experiment: TEVC recordings in Xenopus oocytes, modulator sensitivity before and after UV photocrosslinking; assay type: cell-based, rat (GluN1), mouse (GluN2B); settings: for Izn/Io 0.1 μM: 0.1 μM zinc; for Izn/Io 1 μM: 1 μM zinc; for Izn/Io 10 μM: 10 μM zinc
T2 construct: For full-length multimeric membrane-embedded receptors studied in cellulo, as done in the present work; expressed in transfected cells; host or cells: Xenopus laevis oocytes, co-injected with amber suppressor tRNA (Yam) and AzF-RS
Protocol: as §1, §2, §3, §4

[3] = target: T3, GluN1-K178AzF/GluN2B receptors (UniProt P35439+Q01097); experiment: as above; assay type: cell-based, rat (GluN1), mouse (GluN2B); settings: read-out: Zn2+ IC50
T3 construct: For full-length multimeric membrane-embedded receptors studied in cellulo, as done in the present work; expressed in transfected cells; host or cells: Xenopus laevis oocytes, co-injected with amber suppressor tRNA (Yam) and AzF-RS
Protocol: as §1, §2, §3, §4

[4] = target: T4, GluN1-N512C-L777C/GluN2B-E517C-L781C receptors (UniProt P35439+Q01097, E517C/L777C/L781C/N521C); experiment: TEVC recordings in Xenopus oocytes, zinc and ifenprodil inhibition dose-response; assay type: cell-based, rat (GluN1), mouse (GluN2B)
T4 construct: For full-length multimeric membrane-embedded receptors studied in cellulo, as done in the present work; expressed in transfected cells; host or cells: Xenopus laevis oocytes
Protocol: as §1, §2, §3, §4

[5] = target: T5, GluN1/GluN2B-N218C receptors (UniProt P35439+Q01097, N218C); experiment: as above; assay type: cell-based, rat (GluN1), mouse (GluN2B)
T5 construct: For full-length multimeric membrane-embedded receptors studied in cellulo, as done in the present work; expressed in transfected cells; host or cells: Xenopus laevis oocytes
Protocol: as §1, §2, §3, §4

T4 sequence (Q01097 27-1482 E517C/L781C, other chains not shown): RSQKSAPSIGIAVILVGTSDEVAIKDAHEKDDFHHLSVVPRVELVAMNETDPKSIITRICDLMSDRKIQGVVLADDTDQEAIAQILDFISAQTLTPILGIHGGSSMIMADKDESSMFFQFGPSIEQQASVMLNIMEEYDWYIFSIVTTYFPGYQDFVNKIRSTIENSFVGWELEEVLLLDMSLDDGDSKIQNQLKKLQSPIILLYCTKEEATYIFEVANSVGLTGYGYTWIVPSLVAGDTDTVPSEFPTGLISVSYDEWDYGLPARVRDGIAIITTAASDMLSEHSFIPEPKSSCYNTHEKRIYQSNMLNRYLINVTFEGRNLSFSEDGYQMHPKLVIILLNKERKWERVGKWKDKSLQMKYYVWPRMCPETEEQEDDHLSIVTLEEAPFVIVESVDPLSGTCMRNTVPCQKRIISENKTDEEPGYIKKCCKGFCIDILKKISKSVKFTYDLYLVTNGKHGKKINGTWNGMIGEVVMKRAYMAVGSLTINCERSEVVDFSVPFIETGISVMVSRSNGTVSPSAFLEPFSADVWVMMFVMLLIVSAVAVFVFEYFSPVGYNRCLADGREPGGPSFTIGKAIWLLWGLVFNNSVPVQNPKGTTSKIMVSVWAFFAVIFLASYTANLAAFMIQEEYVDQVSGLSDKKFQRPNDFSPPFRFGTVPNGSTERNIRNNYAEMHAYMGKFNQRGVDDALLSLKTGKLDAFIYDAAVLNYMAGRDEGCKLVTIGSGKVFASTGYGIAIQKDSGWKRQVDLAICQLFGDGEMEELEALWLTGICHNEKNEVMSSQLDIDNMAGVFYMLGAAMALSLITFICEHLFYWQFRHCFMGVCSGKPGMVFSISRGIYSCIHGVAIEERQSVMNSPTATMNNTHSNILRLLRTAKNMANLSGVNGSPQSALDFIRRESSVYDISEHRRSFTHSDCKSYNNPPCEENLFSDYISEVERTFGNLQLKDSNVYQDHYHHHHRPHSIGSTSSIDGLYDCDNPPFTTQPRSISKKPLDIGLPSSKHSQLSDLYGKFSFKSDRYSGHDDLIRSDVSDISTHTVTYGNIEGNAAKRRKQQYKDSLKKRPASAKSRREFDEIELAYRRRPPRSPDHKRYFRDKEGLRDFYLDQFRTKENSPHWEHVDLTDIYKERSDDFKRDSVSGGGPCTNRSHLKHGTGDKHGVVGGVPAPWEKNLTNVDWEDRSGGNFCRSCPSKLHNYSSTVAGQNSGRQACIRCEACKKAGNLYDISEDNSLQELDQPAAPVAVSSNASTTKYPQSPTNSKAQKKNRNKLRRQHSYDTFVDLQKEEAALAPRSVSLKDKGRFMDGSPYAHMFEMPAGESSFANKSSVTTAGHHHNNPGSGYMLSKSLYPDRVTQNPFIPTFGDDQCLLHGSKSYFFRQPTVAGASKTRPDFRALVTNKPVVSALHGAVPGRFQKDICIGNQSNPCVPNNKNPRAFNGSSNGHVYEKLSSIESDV
T5 sequence (Q01097 27-1482 N218C, other chains not shown): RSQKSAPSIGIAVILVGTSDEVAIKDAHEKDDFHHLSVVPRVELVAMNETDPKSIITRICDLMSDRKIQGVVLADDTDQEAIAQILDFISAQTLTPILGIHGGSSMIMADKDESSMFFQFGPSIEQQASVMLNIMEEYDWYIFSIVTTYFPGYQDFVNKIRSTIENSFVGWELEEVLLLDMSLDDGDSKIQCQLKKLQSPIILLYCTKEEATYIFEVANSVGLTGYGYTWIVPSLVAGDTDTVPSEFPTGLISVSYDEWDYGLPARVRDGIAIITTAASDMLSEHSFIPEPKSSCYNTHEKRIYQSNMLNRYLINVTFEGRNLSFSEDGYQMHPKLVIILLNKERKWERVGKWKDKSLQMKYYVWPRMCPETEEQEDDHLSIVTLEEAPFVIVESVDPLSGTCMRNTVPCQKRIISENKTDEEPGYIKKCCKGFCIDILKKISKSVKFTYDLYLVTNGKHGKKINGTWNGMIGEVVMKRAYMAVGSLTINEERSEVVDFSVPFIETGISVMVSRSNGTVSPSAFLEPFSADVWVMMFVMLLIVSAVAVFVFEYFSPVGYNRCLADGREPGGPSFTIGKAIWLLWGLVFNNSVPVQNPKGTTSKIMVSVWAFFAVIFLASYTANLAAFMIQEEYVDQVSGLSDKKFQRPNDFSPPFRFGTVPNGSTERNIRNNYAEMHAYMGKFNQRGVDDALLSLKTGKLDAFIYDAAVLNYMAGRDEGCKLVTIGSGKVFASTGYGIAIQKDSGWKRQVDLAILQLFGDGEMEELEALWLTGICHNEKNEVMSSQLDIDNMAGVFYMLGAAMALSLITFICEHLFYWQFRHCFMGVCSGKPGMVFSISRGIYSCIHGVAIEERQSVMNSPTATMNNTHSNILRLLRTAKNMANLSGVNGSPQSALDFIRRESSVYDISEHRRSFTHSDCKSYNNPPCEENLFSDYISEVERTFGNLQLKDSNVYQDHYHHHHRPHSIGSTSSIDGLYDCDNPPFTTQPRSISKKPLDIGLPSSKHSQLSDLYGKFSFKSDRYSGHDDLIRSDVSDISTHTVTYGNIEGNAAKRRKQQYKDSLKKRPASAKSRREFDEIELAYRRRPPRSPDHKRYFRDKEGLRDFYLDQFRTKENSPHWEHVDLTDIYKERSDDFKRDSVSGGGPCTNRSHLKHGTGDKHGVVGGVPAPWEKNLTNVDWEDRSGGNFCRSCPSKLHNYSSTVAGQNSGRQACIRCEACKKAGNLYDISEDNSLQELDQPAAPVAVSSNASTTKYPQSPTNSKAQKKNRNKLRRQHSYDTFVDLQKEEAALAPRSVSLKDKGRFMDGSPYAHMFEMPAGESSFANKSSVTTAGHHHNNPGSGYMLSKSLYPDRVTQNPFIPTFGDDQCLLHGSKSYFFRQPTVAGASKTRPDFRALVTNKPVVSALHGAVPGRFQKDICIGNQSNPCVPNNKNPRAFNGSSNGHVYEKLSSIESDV
T1 sequence (Q00959 23-1464, other chains not shown): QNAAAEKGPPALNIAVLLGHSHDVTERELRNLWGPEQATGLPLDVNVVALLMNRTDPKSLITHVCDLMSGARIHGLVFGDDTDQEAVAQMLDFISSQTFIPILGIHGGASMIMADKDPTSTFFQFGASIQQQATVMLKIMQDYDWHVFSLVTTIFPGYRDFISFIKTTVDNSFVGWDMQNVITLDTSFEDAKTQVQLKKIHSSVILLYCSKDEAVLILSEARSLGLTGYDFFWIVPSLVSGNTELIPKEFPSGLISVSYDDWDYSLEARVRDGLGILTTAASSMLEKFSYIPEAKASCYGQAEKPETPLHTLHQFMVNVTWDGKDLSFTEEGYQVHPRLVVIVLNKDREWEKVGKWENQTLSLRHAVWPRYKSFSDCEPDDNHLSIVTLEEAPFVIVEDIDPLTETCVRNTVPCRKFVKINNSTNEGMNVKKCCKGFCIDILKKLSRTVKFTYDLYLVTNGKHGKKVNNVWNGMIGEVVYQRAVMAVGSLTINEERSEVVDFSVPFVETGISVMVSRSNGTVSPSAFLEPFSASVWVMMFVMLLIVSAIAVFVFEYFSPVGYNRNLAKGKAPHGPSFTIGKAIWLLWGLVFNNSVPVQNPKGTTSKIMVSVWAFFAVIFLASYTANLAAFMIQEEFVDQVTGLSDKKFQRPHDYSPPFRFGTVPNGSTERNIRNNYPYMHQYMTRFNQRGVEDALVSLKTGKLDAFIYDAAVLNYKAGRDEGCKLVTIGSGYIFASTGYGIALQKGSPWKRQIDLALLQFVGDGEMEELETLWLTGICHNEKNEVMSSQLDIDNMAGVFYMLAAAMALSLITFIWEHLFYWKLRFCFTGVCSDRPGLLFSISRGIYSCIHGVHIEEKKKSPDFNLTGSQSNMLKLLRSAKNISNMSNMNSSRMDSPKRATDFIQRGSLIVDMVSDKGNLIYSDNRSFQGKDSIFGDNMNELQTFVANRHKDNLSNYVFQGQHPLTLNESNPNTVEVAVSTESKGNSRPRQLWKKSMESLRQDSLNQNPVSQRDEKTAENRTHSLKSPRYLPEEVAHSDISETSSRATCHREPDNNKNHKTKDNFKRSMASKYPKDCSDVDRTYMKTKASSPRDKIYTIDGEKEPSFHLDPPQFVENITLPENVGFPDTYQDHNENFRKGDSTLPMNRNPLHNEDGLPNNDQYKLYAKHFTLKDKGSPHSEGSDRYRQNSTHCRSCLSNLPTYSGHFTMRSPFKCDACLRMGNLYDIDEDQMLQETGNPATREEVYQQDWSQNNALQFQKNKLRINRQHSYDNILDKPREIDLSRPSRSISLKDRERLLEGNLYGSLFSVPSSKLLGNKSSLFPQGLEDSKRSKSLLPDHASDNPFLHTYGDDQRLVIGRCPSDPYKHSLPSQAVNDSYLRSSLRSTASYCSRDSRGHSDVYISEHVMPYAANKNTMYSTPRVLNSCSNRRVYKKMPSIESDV

Compound: [Zn+2] [zinc]
- Zn2+ Hill slope (nH) [1]: 0.64 ± 0.10 and 0.70 ± 0.03 and 0.77 ± 0.05
- Izn/Io 1 nM [1]: 0.90 ± 0.01 and 0.90 ± 0.05 and 0.86 ± 0.08
- Izn/Io 1 nM ([1]; +GNE (100 µM GNE-3419)): 0.97 ± 0.02
- Izn/Io 10 nM [1]: 0.68 ± 0.01 and 0.68 ± 0.04 and 0.68 ± 0.07
- Izn/Io 10 nM ([1]; +GNE (100 µM GNE-3419)): 0.88 ± 0.05
- Izn/Io 50 nM [1]: 0.45 ± 0.02 and 0.45 ± 0.05
- Izn/Io 50 nM ([1]; +GNE (100 µM GNE-3419)): 0.76 ± 0.08
- Izn/Io 500 nM [1]: 0.31 ± 0.02 and 0.33 ± 0.04
- Izn/Io 500 nM ([1]; +GNE (100 µM GNE-3419)): 0.65 ± 0.07
- Izn/Io 1000 nM [1]: 0.30 ± 0.06 and 0.28 ± 0.04 and 0.30 ± 0.03
- Izn/Io 1000 nM ([1]; +GNE (100 µM GNE-3419)): 0.58 ± 0.02
- Zn2+ maximal inhibition ([1]; fraction): 0.74 ± 0.05
- Zn2+ Hill slope (nH) ([1]; in the presence of 100 µM GNE-3419): 0.62 ± 0.17
- IC50 ([1]; read-out: Zn2+ IC50): 12 nM and 15.3 nM and 13 nM
- Izn/Io 0.1 μM ([2]; +UV): 0.97 ± 0.02
- Izn/Io 0.1 μM ([2]; -UV): 0.73 ± 0.09
- Izn/Io 1 μM ([2]; +UV): 0.86 ± 0.03
- Izn/Io 1 μM ([2]; -UV): 0.33 ± 0.05
- Izn/Io 10 μM ([2]; +UV): 0.45 ± 0.08
- Izn/Io 10 μM ([2]; -UV): 0.04 ± 0.01
- Zn2+ Hill slope (nH) ([2]; after UV): 0.91 ± 0.02
- Zn2+ Hill slope (nH) ([2]; before UV): 1.02 ± 0.02
- increase in zinc IC50 following UV treatment ([2]; post-UV vs pre-UV): ~ 15 fold
- IC50 ([3]; after UV): 7960 ± 160 nM
- IC50 ([3]; before UV): 540 ± 10 nM
- Zn2+ Hill slope (nH) [4]: 0.88 ± 0.05
- Izn/Io 0.1 μM ([4]; 0.1 μM zinc): 0.78 ± 0.07
- Izn/Io 0.3 μM ([4]; 0.3 μM zinc): 0.60 ± 0.03
- Izn/Io 1 μM ([4]; 1 μM zinc): 0.40 ± 0.03
- Izn/Io 3 μM ([4]; 3 μM zinc): 0.23 ± 0.03
- Izn/Io 10 μM ([4]; 10 μM zinc): 0.10 ± 0.03
- Zn2+ Hill slope (nH) [5]: 1.01 ± 0.01
- Izn/Io 0.1 μM ([5]; 0.1 μM zinc): 0.95 ± 0.07
- Izn/Io 1 μM ([5]; 1 μM zinc): 0.72 ± 0.08
- Izn/Io 10 μM ([5]; 10 μM zinc): 0.22 ± 0.07
- IC50 ([5]; read-out: Zn2+ IC50): 3060 ± 40 nM
